From article PMC9050674, “Structure-based inhibitor design for reshaping bacterial morphology” (Communications Biology, 2022)
Values joined by “and” are separate entries in the source; they are usually repeats but may differ in a detail not shown here. Equal entries are not always repeated.

What was measured:
[1] = molecular target: Pgp3 WT (Campylobacter jejuni, UniProt Q0P921); assay: Isothermal-titration calorimetry (ITC) with Pgp3 WT; assay type: binding, C. jejuni
Method: The gene encoding the amino-acid sequence of Glu21–Gln273 of Pgp3 from C. jejuni (strain ATCC 33560) was cloned into the expression vector pET-21a (Novagen) producing the recombinant wild-type Pgp3 protein with the C-terminal His6-tag ([…]). The protein expression and purification were conducted according to previously described methods with exception. The HiTrap chelating HP (GE Healthcare) column was washed with the lysis buffer containing 60 mM imidazole and the protein was eluted with a linear gradient from 100 to 500 mM imidazole. The protein was further purified by gel filtration on a HiLoad 16/60 Superdex 200 prep-grade column (GE Healthcare), which was previously equilibrated with 20 mM Tris-HCl pH 8.0 and 200 mM NaCl. The fractions containing the Pgp3 protein were pooled and concentrated to 15 mg mL^−1 for crystallization. The variants of Pgp3 (S169A, R195A, H216A, and H247A) were generated by site-directed mutagenesis using primer sets in Supplementary Table 1 and were purified as described for the WT Pgp3.
Using a micro-syringe, 2.5 μL of each inhibitor (2.25 mM) was added at intervals of 200 s to the Pgp3 solution in the cell with gentle stirring (125 rpm). The same ITC condition was applied to evaluate the KD values of BMK-S101 for each Pgp3 variant. All data were fitted to the single-binding-site model. Fitted curves were generated using GraphPad Prism 7. Data are mean ± SEM from triplicate experiments and the ITC thermograms are representative of triplicate experiments.

[2] = system: C. jejuni (ATCC 33560); assay: Drug accumulation assay (LC-MS)
Method: The accumulation assay was adapted from two different methods[42],[43]. […] The culture was grown overnight at 42 °C under the micro-aerobic condition. The cells were harvested at 6000 g for 15 min and washed with 1 × PBS, followed by resuspension in pre-warmed 1 × PBS to ~10^10 CFU/mL. The cell suspension (1.2 mL) was dispensed into a 24-well plate. Each compound to be examined was added into each well (final concentration = 100 μM). […] After incubation with shaking at 37 °C for 20 min, OD600 of each sample was measured, and the cells were harvested at 6000 g for 10 min at 4 °C. The pellets were resuspended in 250 μL of water, followed by three cycles of Freeze-Thaw with a dry ice/ethanol bath and a 37 °C-heating block in order to extract the compounds from C. jejuni. The cells were pelleted at 13,000 g for 5 min at room temperature. The supernatants (220 μL) were transferred to new tubes. The pellets were resuspended in 100 μL of methanol with vigorous vortexing for 1 min, followed by pelleting as before. The supernatants (100 μL) were combined with the solutions previously collected. The residual cell debris were removed at 20,000 g for 15 min at room temperature. The supernatants (300 μL) were dried with Genevac™ miVac Centrifugal Concentrator at room temperature for 5 h. Finally, the samples were resuspended with appropriate solvents and analyzed by LC-MS.
The suspension was centrifuged and the supernatant was analyzed by LC-MS. LC-MS systems consists of a Bruker impact II ultra-high resolution Qq-time-of-flight mass spectrometer using Hystar 5.0 SR1 software with a Waters Acquity UPLC H-Class system equipped with a quaternary solvent manager, a sample manager-FTN, and a photodiode array detector. The Bruker electrospray ionization source was operated in the positive ion mode, except for BMK-S301 (in the negative ion mode). […] A four-step 10-min LC gradient was as follows: 3 min at 98:2; 3 min to 85:15; 0.1 min to 98:2; 3.9 min at 98:2 for BMK-S101, -S203, and -S301. The ratio of the mobile phases (A = 0.1% formic acid in water, B = 0.1% formic acid in ACN) is given as A:B in LC gradients. […] The quantification was done by integrating the peak areas from extracted-ion chromatograms of corresponding m/z values of each compound.

[3] = system: Caco-2 epithelial cells; assay: Cytotoxicity assay (LDH release); assay type: cell-based; details: 3 h; for Cytotoxicity test (LDH release, Triton X-100 lysis = 100%): single replicates, source data Fig. 5c
Method: To examine the cytotoxicity of BMK-[…], the lactate dehydrogenase (LDH) activity was measured using Cytotoxicity Detection Kit^PLUS (LDH; Roche, Switzerland) according to the manufacturer's instructions. Briefly, the monolayers of Caco-2 cells were prepared in a 96 well tissue culture plate and incubated in Dulbecco's modified-eagle medium (DMEM; ATCC) with 10% fetal bovine serum (FBS; Invitrogen), and 0.6% carboxymethylcellulose (CMC) at 37 °C under 5% CO2. […] The 2% Triton X-100 was used to release all LDH of Caco-2 cell as a positive control.

[4] = system: C. jejuni ATCC 33560 WT; assay type: cell-based, Campylobacter jejuni
Method: Invasion assay was performed as described previously with modifications. Briefly, prior to bacterial infection, a monolayer of 1 × 10^5 Caco-2 cells was prepared in a 24-well tissue culture plate and incubated in DMEM with 10% FBS, and 0.6% CMC at 37 °C under 5% CO2. The cultures of wild-type C. jejuni strain with or without BMK-S301 (100 μM) and KL-L9P (1 μM) were prepared, as described above (TEM). The bacterial suspensions were diluted in DMEM with 10% FBS and 0.6% CMC, and then added onto the cell monolayer at a multiplicity of infection (MOI) of 100. After a 3 h incubation, the cells were incubated with 250 μg/mL of gentamicin in the fresh pre-warmed medium for 2 h to kill any extracellular bacteria. The wells were washed three times with 1 × PBS, and treated with 0.1% Triton X-100 in 1 × PBS for 15 min. After dilution with 1 × PBS, the suspensions were plated on MH agar to enumerate the CFU. […]

Pgp3 WT, sequence (Q0P921 entry or part of it): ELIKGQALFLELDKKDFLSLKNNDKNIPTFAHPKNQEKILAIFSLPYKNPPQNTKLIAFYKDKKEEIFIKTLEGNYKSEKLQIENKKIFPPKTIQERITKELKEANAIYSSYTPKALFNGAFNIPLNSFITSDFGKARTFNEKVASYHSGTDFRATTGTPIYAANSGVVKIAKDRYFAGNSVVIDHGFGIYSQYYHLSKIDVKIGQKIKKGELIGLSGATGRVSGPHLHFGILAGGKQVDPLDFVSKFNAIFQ

Q: Which Kd [1] does the source give for `CC(=O)N[C@@H](Cc1ccc(S(N)(=O)=O)cc1)C(=O)N[C@H](C)C(=O)NO` [BMK-S301] here?
A: 3.5 ± 0.2 µM

Q: What about the “accumulation fold higher than for BMK-S203” value ([2]; 100 μM compound) of the same molecule?
A: 54 fold

Q: And the “accumulation fold higher than for ciprofloxacin” value ([2]; 100 μM compound)?
A: 8 fold

Q: And the “intracellular concentration (accumulation)” value ([2]; 100 μM compound, 37 °C, 20 min, LC-MS, mean)?
A: 16.2 ± 1.0 nmole/10^11 CFU

Q: What about the “µM (concentration in LC-MS sample)” value ([2]; single replicates (First, Second, Third), total volume 200 (r6-r19) or 100 (r23-r30), source data Fig. 5b) of the same molecule?
A: 0.766 µM and 0.686 µM and 1.447 µM and 1.359 µM and 1.398 µM and 0.649 µM

Q: What about the “nmol/1011 CFUs” value ([2]; single replicates, source data Fig. 5b) of the same molecule?
A: 17.92 nmol/1011 CFUs and 16.41 nmol/1011 CFUs and 16.422 nmol/1011 CFUs and 15.620 nmol/1011 CFUs and 15.458 nmol/1011 CFUs and 15.07 nmol/1011 CFUs

Q: And the Total nmol ([2]; single replicates, total volume 200 or 100, source data Fig. 5b)?
A: 0.1532 nmol and 0.1372 nmol and 0.1447 nmol and 0.1359 nmol and 0.1398 nmol and 0.1298 nmol

Q: And the “Cytotoxicity test (LDH release, Triton X-100 lysis = 100%)” value ([3]; 10 μM)?
A: 0% (5×) and 4.598%

Q: And the “Cytotoxicity test (LDH release, Triton X-100 lysis = 100%)” value ([3]; 100 μM)?
A: 2.466% and 0% (5×)

Q: What about the “toxicity to Caco-2 cells” value ([3]; LDH release, 10 or 100 μM) of the same molecule?
A: not toxic

Q: And the “invasion ability of WT C. jejuni” value ([4]; 100 μM BMK-S301 and 1 μM KL-L9P, high-viscosity medium, 3 h after infection)?
A: decreased compared to that of the untreated C. jejuni

Q: And the “Invasion assay (intracellular bacteria, relative)” value ([4]; BMK-S0301 100 μM with MAP 1 μM, single replicates, source data Fig. 5d)?
A: 90.1581 and 72.6517 and 79.6542 and 66.8677 and 113.675 and 78.0123 and 88.3559 and 93.1319 and 83.5799
